Laboratory results as given in patent publication US6593275B1, “Use of prolines for improving growth and other properties of plants and algae” (The Regents of the University of California, priority 2000, dated 2003).
Several values for one entry are separate records, joined by “and”; a condition that tells them apart may be missing. Equal values may be shown once. Marks after values point to notes of the source that are not given here.

Key:
[1] = tested on: wildtype oats (commercial cultivar Lodi); experiment: Daily root treatment of oats; selection of responders by CO2 fixation rate and tillers; assay type: in vivo
Description: Oats were treated with 2-hydroxy-5-oxoproline through their roots as described in EXAMPLE 1. Individual plants that responded to the increased level of 2-hydroxy-5-oxoproline were identified by measuring the rate of CO2 fixation using a CO2 fixation meter at the maximum light intensity for photosynthetic carbon dioxide fixation of 2000 microeinsteins per meter squared per second. The rates were measured in the leaves of treated plants on two successive days and the plants were allowed to mature and produce seed.

Chlorella sorokinian = experiment: Growth rate of algae with 2-hydroxy-5-oxoproline in growth medium; assay type: cell-based; conditions: treated algae, CO2 sole carbon source; untreated approximately 60 h
Description: The growth rate of algae, Chlorella sorokinian (obtained from the American Type Culture Collection), was increased when 2-hydroxy-5-oxoproline was added to the growth medium. The mass accumulation growth curve for this single-cell photosynthetic organism is described as a sigmoidal function. […] This reflects substantially accelerated growth for the treated algae cultures when compared with untreated cultures. The growth medium for algae growth is described in Biotechnology & Bioengineering Vol. IV by Daboll et al., pages 281-297 (1962). Carbon dioxide was provided as the sole carbon source and was allowed to sparge into the cultures of both treated and untreated cultures. The light source supplied approximately 980 ft candles. Media pH was initially adjusted to 8.0 using either NaOH or HCl, and subsequently maintained at pH 7.0 by controlling the introduction of CO2.

oat plants [2] = experiment: Root treatment of oats; effects of increasing leaf/root GS ratio on growth and leaf 2-hydroxy-5-oxoproline; assay type: in vivo; conditions: for Whole Plant Fresh Weight (FWT): oats, compound delivered to the roots, controls 14.95; for 2-Hydroxy-5-oxoproline in Leaf: treated oats, controls 4.9
Description: (§1) Having generally described the invention, the following EXAMPLES provide additional details of the effects of the metabolite, 2-hydroxy-5-oxoproline and other prolines on plant properties. In the EXAMPLES, the concentration of 2-hydroxy-5-oxoproline in plant leaves was determined by extracting the 2-hydroxy-5-oxoproline into acidified water from a known weight of fresh leaf tissue. The sampled leaves were fully extended and photosynthetically active. The amount of 2-hydroxy-5-oxoproline was measured using a high-performance liquid chromatograph fitted with an optical detector (210 nm) and a column packed with a sulfonated polystyrene di-vinyl benzene polymer suitable for ion-exclusion chromatography of Kreb cycle intermediates. The metabolite was eluted with 0.01N H2SO4 in water. The chromatograph peak corresponding to 2-hydroxy-5-oxoproline was identified by the known column retention time of 2-hydroxy-5-oxoproline. A standard curve was prepared using chemically synthesized 2-hydroxy-5-oxoproline (structure confirmed using 13-C nuclear magnetic resonance) and varying the amount of this standard injected into the system. The area integrated under the peak was correlated with the known amount of standard injected into the chromatograph. The amount of 2-hydroxy-5-oxoproline in leaf tissue samples could then be quantitatively determined from the area under the appropriate peak.
(§2) Also in the EXAMPLES, plants were grown at 73° F. with 16 h length days and 8 h length nights. Fluorescent lights were supplemented with incandescent bulbs to generate intensities of 1760, 980 or 360 microeinsteins per meter squared per second as indicated in the EXAMPLES. Plants were grown in a standard potting mixture of peat moss, vermiculite and perlite, and nutrients were supplied by watering daily with the commonly used Hoagland's plant nutrient solution which contains an array of known plant nutrients and is considered to be appropriate to meet the nutrient needs of plants as they normally receive them from soil.
(§3) TABLE 5 and FIG. 3 hereof show the results of increasing the ratio of leaf/root GS activity on plant growth and on the concentration of 2-hydroxy-5-oxoproline in the leaves of oat plants treated with a compound (tabtoxinine-β-lactam) that binds to glutamine synthetase and impairs the normal destruction of this enzyme, thereby causing the leaf GS activity to increase while the root GS activity decreases. (For methodology, see, e.g., T. Knight, D. Bush, and P. Langston-Unkefer, Plant Physiol. 88, 333 (1988)). The compound (Tabtoxinine-β-lactam) was delivered to the roots. […] The level of 2-hydroxy-5-oxoproline was also observed to increase in the leaves of these plants as a consequence of the increased leaf/root GS activity ratio.

glutamine synthetase = experiment: Glutamine synthetase activity in leaf and root of treated oats (transferase assay); assay type: in vivo; conditions: for GS Activity, Leaf: leaf of treated oats, controls 10.5; for GS Activity, Root: root of treated oats, controls 7.8; for Leaf/Root GS Activity Ratio: treated oats, controls 1.35
Description: Glutamine synthetase activity was measured using the transferase assay as described in “Glutamine Synthetase (E. coli)” by B. Shapiro and E. Stadtman, Meth. Enzym. 17A, 910 (1970). The GS activity is expressed in micromoles per gram of fresh weight of tissue per minute.
as §3

[3] = tested on: alfalfa commercial cultivar Saranac; experiment: Daily root treatment of alfalfa: growth, nodulation and flowering; assay type: in vivo
Description: as §2
Growth and nodulation were improved by the treatment. The alfalfa commercial cultivar Saranac, was grown as described hereinabove using 1760 microeinsteins per meter squared per second as the light intensity, and watered daily with quarter-strength Hoagland's plant nutrient solution that had been modified to replace the nitrogen (nitrate) with chloride in the solution. Nodulating alfalfa seedlings were treated beginning at about 4 days of age, with the same quantity of 2-hydroxy-5-oxoproline as described in EXAMPLE 1 for plants receiving the 2-hydroxy-5-oxoproline through their roots.
The time to flowering or emergence of seed structures of treated daily and untreated plants was tracked in alfalfa and oats.

Cotton-Pima = experiment: Single foliar treatment of cotton seedlings; assay type: in vivo; conditions: 16 days old, harvested 9 day after a single treatment, untreated 1.27
Description: (§4) TABLE 7 and TABLE 8 show the results when commercial vegetables such as cantaloupe, and tomatoes, and a crop such as cotton were tested for the effects of the metabolite on their growth rates. These plants received one foliar application of 2-hydroxy-5-oxoproline as young seedlings. These plants grew more rapidly as determined by either fresh weight or leaf length. The cantaloupe and cotton seedlings were harvested and their fresh weight was determined.
(§5) *Plants were 16 days old and were harvested 9 day after the treated plants had received a single treatment.

[4] = tested on: Switchgrass (commercial cultivar Alamo); experiment: Daily root treatment of switchgrass; assay type: in vivo
Description: as §2
Average fresh weight of the foliar part of the plants was 115% of that for the control plants.

thrip = experiment: Thrip infestation of alfalfa plants with elevated 2-hydroxy-5-oxoproline; assay type: in vivo; conditions: of 80 plants, one week after initial exposure; controls 15 of 80
Excerpt: Thrip infestation of plants having increased 2-hydroxy-5-oxoproline concentration was compared with that of control plants having a normal level of 2-hydroxy-5-oxoproline in their leaves. Control (80 plants) and plants with elevated levels of 2-hydroxy-5-oxoproline (80 plants) were subjected to thrip infestation; these two sets of plants were randomly intermingled in the greenhouse to assure equal exposure to the pest. Of the set of control plants, 15 were infested with thrip while only 11 of the other set of plants were infested with thrip one week after initial exposure to the pests. The light intensity for growth was approximately 1760 microeinsteins per meter squared per second.

Tomato-Halley 3155 = experiment: Multiple foliar treatment of tomato; assay type: in vivo; conditions: 24 days old, 5 weekly treatments, untreated 11.97
Description: as §4
** Plants were 24 days old and treated plants had received 5 weekly treatments.

Cantaloupe-Imperial = experiment: Single foliar treatment of cantaloupe seedlings; assay type: in vivo; conditions: 16 days old, harvested 9 day after a single treatment, untreated 0.85
Description: as §4, §5

lettuce = experiment: Weekly foliar treatment of lettuce with 2-hydroxy-5-oxoproline; assay type: in vivo
Description: as §1, §2
The fresh weight, dry weight, percent dry weight, 2-hydroxy-5-oxoproline concentration in the leaves, and the CO2 fixation rates are all increased in the treated plants. The greater dry weight percent increases the value of these plants and that of algae as fuel because the increase provides a greater amount of combustible material per gram of fresh weight (that is, a greater amount of carbon was fixed by the plant), and because an increase in dry weight percent reduces the water content in the fuel which is an energy cost when the fuel is combusted. It also increases the value of these plants as sources of biomass suitable for conversion to other products such as chemicals, liquid fuels, or hydrogen, to name a few examples. Treatments were applied weekly to the foliar parts of the plants using an air brush until approximately 20% drip. The aqueous treatment solution contained 2-hydroxy-5-oxoproline (10 mg/liter) in 0.07% sodium laurel sulfate, and 1.2% glycerol at a pH of 6.3. The plants were harvested at 63 days of age after 7 treatments; the harvest was made 7 days after the last treatment. These plants were provided Hoagland's plant nutrient solution to their roots and grown under light intensity of […] microeinsteins.
At harvest (63 days of age) none of the 12 control plants had emerged flowering structures, whereas 6 of the 12 treated plants had well-developed flowering structures.

[5] = tested on: oat plants (commercial cultivar Lodi); experiment: Daily root treatment of oats with 2-hydroxy-5-oxoproline; assay type: in vivo
Description: as §1
Also in the EXAMPLES, plants were grown at 73° F. with 16 h length days and 8 h length nights. […]
The treatment was commenced when the seedlings were 7 days old and continued for 56 days; the 2-hydroxy-5-oxoproline was supplied daily to their roots as 50 ml of between 0.5 to 50 μM solutions of 2-hydroxy-5-oxoproline in Hoagland's plant nutrient solution having a pH of 6.3. […] When the amount of dry weight was expressed as a function of fresh weight, the percent dry weight of the treated plants ranged from 8.1 to 8.4% when compared with 7.6% for untreated control plants. […]

oat plants [6] = experiment: Foliar treatment of oats with 5-oxoproline; assay type: in vivo; conditions: oats harvested 17 days after single foliar treatment, 40.5 mg per milliliter, 1% dimethylsulfoxide, pH 6.3
Description: A solution containing 40.5 mg per milliliter of 2-pyrrolidone-5-carboxylic acid and 1% dimethylsulfoxide in water at a pH of 6.3 was applied, but other solutions of this compound were also found to be effective. These plants were grown under lights of 980 microeinsteins per meter squared per second and the treatment was applied to their foliar parts.

[7] = individual treated oat plants, non-responders
[8] = alfalfa, daily root treatment (soil), controls 100
[9] = lettuce, harvest at 63 days, control 100%

## O=C1CC[C@@](O)(C(=O)O)N1 [2-hydroxy-5-oxoproline]
[1]; average of non-responders, average of untreated plants 13.7
  Number of Tillers in Mature Plant: 14.0
[1]; average of non-responders, average of untreated plants 18.2
  CO2 fixation Rate as Differential CO2 Concentration: 18.2 ppm
[1]; average of responders, average of untreated plants 13.7
  Number of Tillers in Mature Plant: 17.0
[1]; average of responders, average of untreated plants 18.2
  CO2 fixation Rate as Differential CO2 Concentration: 25.3 ppm
[1]; [7]
  CO2 fixation Rate as Differential CO2 Concentration: 19.9 ppm and 19.6 ppm and 17.2 ppm and 16.1 ppm
  Number of Tillers in Mature Plant: 14 (2×) and 13 and 15
[1]; individual treated oat plants, responders
  Number of Tillers in Mature Plant: 21 (2×) and 19 and 12 and 15 and 17 (3×) and 13 and 18
[1]; individual treated oat plants, responders, light 2000 microeinsteins
  CO2 fixation Rate as Differential CO2 Concentration: 25.2 ppm and 24.5 ppm and 24.2 ppm (2×) and 23.6 ppm and 23.2 ppm and 28.9 ppm and 28.0 ppm and 25.9 ppm and 25.3 ppm
Chlorella sorokinian
  time to reach the mid-log phase of growth: approximately 40 h
Oat plants [2]
  Whole Plant Fresh Weight (FWT): 18.07 g
  2-Hydroxy-5-oxoproline in Leaf: 7.04 micromoles/g FWT
Glutamine synthetase
  GS Activity, Leaf: Leaf: 16.9 micromoles/g FWT/min
  GS Activity, Root: Root: 6.4 micromoles/g FWT/min
  Leaf/Root GS Activity Ratio: 2.64
[3]; alfalfa treated daily
  flowered sooner than untreated plants: 2 to 5 days
[3]; [8]
  Nodule number/plant (%): 214%
  Nodule weight/plant (%): 165%
  Whole plant Fresh weight (%): 145%
Cotton-Pima
  Foliar Fresh Weight, Treated plants: 1.85* g
[4]; switchgrass, daily root treatment
  Average fresh weight of the foliar part, percent of control plants: 115%
[4]; treated switchgrass, untreated 14.9%
  dry weight per unit of fresh weight, foliar parts: 16.5%
[4]; treated switchgrass, untreated 16.7%
  dry weight per unit of fresh weight, roots: 12.05%
[4]; treated versus control switchgrass, as a function of time
  emergence of 3rd and 4th leaves (FIG. 4): consistently emerged leaves sooner than did the control plants
thrip
  number of plants infested with thrip: 11
Tomato-Halley 3155
  Foliar Fresh Weight, Treated plants: 19.08** g
Cantaloupe-Imperial
  Foliar Fresh Weight, Treated plants: 1.55* g
lettuce; 34 day-old lettuce plants, control 6.6
  CO2 Fixation Rate: 9.0 micromoles CO2 fixed/m^2/sec
lettuce; 57 day-old lettuce plants, control 6.9
  CO2 Fixation Rate: 9.6 micromoles CO2 fixed/m^2/sec
lettuce; lettuce, 7 weekly foliar treatments 10 mg/liter, harvest at 63 days, control 55.3
  Whole Plant Fresh Weight (FWT): 65.2 g
lettuce; lettuce, harvest at 63 days, control 4.00
  Whole Plant Dry Weight (DW): 6.35 g
lettuce; [9]
  Whole Plant Dry Weight, percent of control: 159%
  Whole Plant Fresh Weight, percent of control: 118%
lettuce; lettuce, weekly foliar treatment, control 6.25
  2-Hydroxy-5-oxoproline Concentration in Leaf: 13.37 micromoles/gFWT
lettuce; lettuce, control 100%
  2-Hydroxy-5-oxoproline Concentration in Leaf, percent of control: 212%
lettuce; of the 12 treated lettuce plants at harvest (63 days of age), none of 12 controls
  number of plants with well-developed flowering structures: 6
[5]; oats treated daily
  seed structures displayed earlier than untreated control plants: 3 to 5 days
[5]; oats, daily root treatment, control 4.9
  2-Hydroxy-5-oxoproline Concentration in Leaf: 7.0 micromoles/gFWT
[5]; oats, roots treated daily for 56 days with 50 ml of 0.5 to 50 μM solution, control 14.95
  Whole Plant Fresh Weight (FWT): 18.06 g

## N[C@@H](CC[C@]1(O)CNC1=O)C(=O)O [Tabtoxinine-β-lactam, tabtoxinine-β-lactam, reference compound]
Oat plants [2]
  Whole Plant Fresh Weight (FWT): 24.6 g
  2-Hydroxy-5-oxoproline in Leaf: 16.6 micromoles/g FWT
Glutamine synthetase
  GS Activity, Leaf: Leaf: 25.9 micromoles/g FWT/min
  GS Activity, Root: Root: 3.9 micromoles/g FWT/min
  Leaf/Root GS Activity Ratio: 6.6

## O=C1CCC(C(=O)O)N1 (centres unmarked) [5-oxoproline, 2-pyrrolidone-5-carboxylic acid]
Oat plants [6]
  fresh foliar weight, percent of untreated control plants: 126%
